Source: patent US4985447A, “Certain benzoquinones, naphthoquinones and derivatives thereof which exhibit thromboxane A2 synthetase inhibition or receptor antagonism and the like” (Takeda Chemical Industries, Ltd., priority 1986, dated 1991)

What was measured:
[1] = tested on: lipid peroxide in rat brain homogenate; test: Inhibition of production of lipid peroxide in rat brain homogenate; assay type: biochemical, rat (Sprague-Dawley)
Description: Procedure: Sprague-Dawley rats (male, 9-15 weeks old) anesthetized with pentobarbital (50 mg/kg, intraperitoneal administration) were venesected and the brain tissue was resected. The tissue was homogenized in phosphate buffer (pH 7.4), and used as a 5% homogenate (on weight basis). The brain homogenate was allowed to react at 37° C. for 1 hour, and the amount of lipid peroxide produced was determined with the thiobarbituric acid method according to the method of Okawa et al. (Analytical Biochem 95 551, 1979). The drug was added to the 5% homogenate before the reaction at 37° C. for 1 hour so that the final concentration might be 5×10^-7 or 10^-6 M. Inhibition of production of lipid peroxide was expressed as the rate of inhibition in % of the amount produced in the solvent(DMSO)-treated group.

[2] = molecular target: T1, Thromboxane A2 (TXA2) synthetase (Equus caballus, UniProt A0A9L0T8T9); test: Inhibition of Thromboxane A2 (TXA2) synthetase (horse platelet microsome); assay type: biochemical; conditions: read-out: Inhibition of Thromboxane A2 (TXA2) synthetase; for inhibition at 1 µM: 10^-6 M; for inhibition at 0.1 µM: 10^-7 M
T1 sequence (A0A9L0T8T9 2-534): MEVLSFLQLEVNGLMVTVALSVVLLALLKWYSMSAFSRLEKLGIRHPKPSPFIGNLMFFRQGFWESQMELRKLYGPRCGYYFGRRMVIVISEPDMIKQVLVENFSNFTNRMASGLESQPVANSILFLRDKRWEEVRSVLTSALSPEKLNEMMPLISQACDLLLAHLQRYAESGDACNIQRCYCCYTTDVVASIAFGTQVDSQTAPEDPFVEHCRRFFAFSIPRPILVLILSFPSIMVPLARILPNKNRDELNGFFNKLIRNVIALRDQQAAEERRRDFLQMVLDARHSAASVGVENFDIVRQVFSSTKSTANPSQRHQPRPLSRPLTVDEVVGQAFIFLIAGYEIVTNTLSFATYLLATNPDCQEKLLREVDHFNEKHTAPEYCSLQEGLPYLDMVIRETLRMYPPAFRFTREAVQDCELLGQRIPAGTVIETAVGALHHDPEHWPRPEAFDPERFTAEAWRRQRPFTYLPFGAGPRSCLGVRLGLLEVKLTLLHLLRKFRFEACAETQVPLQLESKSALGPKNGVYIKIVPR
Description: Inhibition of Thromboxane A2 (TXA2) synthetase
(§1) As a preparation of TXA2 synthetase, horse platelet microsome treated with indomethacin (indomethacin-treated horse platelet microsome: IPM) according to the method of Needleman et al. (Science 193 163, 1979) was used. To 60 μl of the solution of IPM in 50 mM Tris buffer(pH 7.5) (containing 140 μg on the protein basis), 60μof a solution containing a drug at a variable concentration was added and kept still at room temperature for 5 minutes. One hundred μl of this mixture was taken, to which 20 μl of a buffer containing 30 ng cf prostaglandin H2 (PGH2) with ice-cooling and kept still at 0° C. for 5 minutes to produce thromboxane A2 (TXA2). The reaction was stopped by addition of 500 μl of Tris buffer, and 50 μl of the resultant solution was subjected to radioimmunoassay of thromboxane B2 (TXB2), a stable metabolite of TXA2 [Shibouta et al. Biochem. Pharmacol. 28 3601, 1979]. The rate of inhibition (%) of TXA2 synthetase was determined from the difference in TXB2 productivity between the untreated group and the treated group.
as §1, with “60 μl of” for “60μof”, “of” for “cf”

inhibition at 1 µM [2] [%] | inhibition at 0.1 µM [2] [%] | SMILES | Inhibition of production of lipid peroxide in rat brain homogenate ([1]; 5 × 10^-7 M) [%] | Inhibition of production of lipid peroxide in rat brain homogenate ([1]; 10^-6 M) [%]
76 | 37 | CC1=C(C)C(=O)C(C(C)c2cccnc2)=C(C)C1=O (centres unmarked) [Compound No. 1, 3,5,6-trimethyl-2-[1-(3-pyridyl)ethyl]-1,4-benzoquinone] | 6 | 90
87 | 48 | CC1=C(C)C(=O)C(C(CCCCCC(=O)O)c2cccnc2)=C(C)C1=O (centres unmarked) [Compound No. 13, 7-(3-pyridyl)-7-(3,5,6-trimethyl-1,4-benzoquinon-2-yl)heptanoic acid] | 20 | 84
